Our source for the IC50 values is patent US10676471B2, “Cycloalkyl-linked diheterocycle derivatives” (Pfizer Inc., priority 2014, dated 2020).

One may read the IC50 as the concentration that inhibits the measured activity by half. A low value points to greater potency.

For the experiment, the system named is BT20 Cell. The experiment can be described thus: Cancer Cell Lysate Total L-Glutamate Assay. The experiment is classed as cell-based. The note with it: Homo sapiens, BT-20, 2 h, total L-glutamate in cell lysate, BT20 cells, 2 hour incubation with test compound. Summed up: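 BT20 and other cancer lines at ~80% confluence were given fresh L-glutamine-containing medium, then treated with serially diluted compound (0.5% DMSO) for 2 hours at 37° C. Washed cells were lysed by freeze-thaw and sonication. Lysate glutamate was measured via glutamate oxidase/HRP/50 μM Amplex Red fluorescence (ex 530-560, em 585 nm); IC50 by four-parameter logistic fit.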

The compound `CC(=O)Nc1nnc(C[C@@H]2CC[C@H](c3nnc(NC(C)=O)s3)C2)s1` (single isomer, unassigned) [Example 5] came in with a concentration for half-maximal inhibition (IC50) of 104 nM.

`CC(C)(C)C(=O)Nc1nnc(C[C@@H]2CC[C@H](c3nnc(NC(=O)C(C)(C)C)s3)C2)s1` (single isomer, unassigned) [Example 29, N-(5-{[(cis)-3-{5-[(2,2-dimethylpropanoyl)amino]-1,3,4-thiadiazol-2-yl}cyclopentyl]methyl}-1,3,4-thiadiazol-2-yl)-2,2-dimethylpropanamide] returned an IC50 of 167 nM.

Compound `CC(=O)Nc1ccc(C[C@H]2C[C@@H](c3nnc(NC(=O)Cc4ccccn4)s3)C2)nn1` (single isomer, unassigned) [Example 114, N-[5-(cis-3-{[6-(acetylamino)pyridazin-3-yl]methyl}cyclobutyl)-1,3,4-thiadiazol-2-yl]-2-(pyridin-2-yl)acetamide] came in with an IC50 of 6.5 nM.
